According to patent publication US20070243262A1, “Stable S-nitrosothiol formulations” (priority 2005, published 2007):

Tests used:
[1] = cited from earlier work
[2] = GSNO API (powder) stability by HPLC; assay type: physicochemical; details: for GSNO % w/w at 5° C. / GSNO % w/w at −20° C. / GSNO % w/w at −80° C.: GSNO powder, HPLC
Protocol: GSNO powder was tested for stability at various temperatures over a three-month period of time, and each formulation was tested for stability at various temperatures over a six month period of time. Stability was determined by HPLC analysis at various times throughout the test period.

Structure (SMILES): N[C@@H](CCC(=O)N[C@@H](CSN=O)C(=O)NCC(=O)O)C(=O)O [GSNO, S-nitrosoglutathione]
- stability in aqueous solutions [1]: decomposing in hours
- GSNO % w/w at 5° C. ([2]; 0 elapsed days): 92.7 % w/w
- GSNO % w/w at 5° C. ([2]; 14 elapsed days): 84.6 % w/w
- GSNO % w/w at 5° C. ([2]; 30 elapsed days): 89.2 % w/w
- GSNO % w/w at 5° C. ([2]; 90 elapsed days): 80.0 % w/w
- GSNO % w/w at −20° C. ([2]; 0 elapsed days): 92.7 % w/w
- GSNO % w/w at −20° C. ([2]; 14 elapsed days): 90.6 % w/w
- GSNO % w/w at −20° C. ([2]; 30 elapsed days): 91.1 % w/w
- GSNO % w/w at −20° C. ([2]; 90 elapsed days): 89.7 % w/w
- GSNO % w/w at −80° C. ([2]; 0 elapsed days): 92.7 % w/w
- GSNO % w/w at −80° C. ([2]; 30 elapsed days): 91.4 % w/w
- GSNO % w/w at −80° C. ([2]; 90 elapsed days): 91.9 % w/w
- stability of GSNO powder (in words) ([2]; temperatures above 0° C.): rapidly degrades
